Earlier results in patent publication US20130251697A1, “NOVEL NASAL SPRAY” (priority 2009, published 2013).

Tested on: SIRT1
Conditions: life extending genes

Compound: Oc1ccc(C=Cc2cc(O)cc(O)c2)cc1 [Resveratrol]
- increases genes SIRT1 expression: up to 13 fold
